Literature values in patent publication US20020122835A1, “Compositions for enhancing muscle tissue recovery and repair” (priority 2001, published 2002).

How the values were obtained:
[1] = oral administration, human volunteers; Kobayashi et al 1998

For `CCNC(=O)CC[C@H](N)C(=O)O` [L-theanine], the “safety in animal experiments” value is given as “safe” and the feeling of relaxation [1] is given as “caused a feeling of relaxation”.
